# Test results published in patent publication EP0329902A1, “Use of quinolizinone and quinolizine derivatives in the manufacture of medicaments for the treatment of psychosis” (MERRELL DOW PHARMACEUTICALS INC., priority 1988, dated 1989).
# Counter-ions that a name gives are not always drawn.
# Test system: Von Bezold-Jarisch Reflex induced by 5-HT
# Assay: Von Bezold-Jarisch Reflex induced by 5-HT injected intravenously
# Format: in vivo
# Details: rat
# Description: The activity of these compounds agianst 5-HT can be assessed in vivo by measurement of the effect of the compound on the Von Bezold-Jarisch Reflex induced by 5-HT injected intravenously into the rat (see Paintal A.S., Physiol. Rev. 53, 159-227, 1973; J.R. Fozard, Naunyn-Schmiedeberg's Arch. Pharmacol., 326, 1984, 36-44). The transient cardiac slowing arises from an increased afferent vagus activity arising from stimulation by 5-HT of sensory afferent fibres in and around the heart.
# [1] = doses of 0.01-0.1 mg/kg given intravenously
# [2] = doses of 0.25-1 mg/kg given orally
SMILES,suppression of the Von Bezold-Jarisch Reflex response [1],suppression of the Von Bezold-Jarisch Reflex response [2]
"O=C(OC1CC2CC3CC(C1)N2CC3=O)c1c[nH]c2ccccc12 (stereo not drawn) [endo-hexahydro-8-(3-indolylcarbonyloxy)-2,6-methano-2H-quinolizin-3(4H)one hydrochloride]",suppressed the response dose-dependently,suppressed the response dose-dependently
"Cc1cc(C)cc(C(=O)OC2CC3CC4CC(C2)N3CC4=O)c1 (stereo not drawn) [endo-8-(3,5-dimethylbenzoyloxy)hexahydro-2,6-methano-2H-quinolizin-3(4H)-one]",suppressed the response dose-dependently,suppressed the response dose-dependently
